Biological target: CtpF (Mycobacterium tuberculosis, UniProt P9WPS9)
Conditions: with Ca2+ or Mg2+; 1 mM ATP; 60 mM Tris pH 7.4, 100 mM KCl; described as competitive inhibitor

Sequence of CtpF (P9WPS9 whole entry): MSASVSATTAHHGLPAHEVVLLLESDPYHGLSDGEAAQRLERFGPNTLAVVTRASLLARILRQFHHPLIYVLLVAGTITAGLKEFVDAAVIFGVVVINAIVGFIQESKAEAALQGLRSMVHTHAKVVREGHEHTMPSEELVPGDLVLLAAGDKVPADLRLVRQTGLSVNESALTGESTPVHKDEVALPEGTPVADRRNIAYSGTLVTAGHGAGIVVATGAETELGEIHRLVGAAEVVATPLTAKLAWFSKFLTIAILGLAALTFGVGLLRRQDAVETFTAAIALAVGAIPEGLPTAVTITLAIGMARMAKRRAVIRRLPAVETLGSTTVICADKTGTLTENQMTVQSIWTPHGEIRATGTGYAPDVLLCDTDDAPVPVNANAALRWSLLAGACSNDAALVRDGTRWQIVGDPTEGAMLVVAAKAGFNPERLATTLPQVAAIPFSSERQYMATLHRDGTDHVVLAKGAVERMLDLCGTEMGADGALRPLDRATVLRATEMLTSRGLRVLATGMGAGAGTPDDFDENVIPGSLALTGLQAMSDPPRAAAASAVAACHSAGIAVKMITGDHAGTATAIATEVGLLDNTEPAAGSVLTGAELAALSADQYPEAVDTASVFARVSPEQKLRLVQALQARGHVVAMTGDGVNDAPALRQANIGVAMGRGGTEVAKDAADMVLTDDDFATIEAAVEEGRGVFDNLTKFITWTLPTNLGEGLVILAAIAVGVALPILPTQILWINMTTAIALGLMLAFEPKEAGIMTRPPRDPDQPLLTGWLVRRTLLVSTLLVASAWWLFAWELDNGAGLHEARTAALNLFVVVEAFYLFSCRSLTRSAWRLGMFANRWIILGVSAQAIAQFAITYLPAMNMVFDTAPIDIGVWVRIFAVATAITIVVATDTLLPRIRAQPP

[O]=[V]([OH])([OH])[OH] [sodium orthovanadate]
complete inhibition of Pi release: sodium orthovanadate, a competitive inhibitor of ATPase activity was used in the reaction
